Measured values: PubChem BioAssay AID2060908 (Molecular Pharmacology Branch, DTP, NCI, 2025)

Test system: 186277-243-T-J2-PDC complex spheroids, viability
Assay: Anticancer human tumor 186277-243-T-J2-PDC patient-derived colon adenocarcinoma cell line growth inhibition [RAS]
Conditions: for IC50: curve of first compound; for viability, T/C: stronger effect = lower value
Procedure, shortened: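 Tumour cells grown as complex spheroids with HUVEC endothelial cells and mesenchymal stem cells, treated with RAS pathway inhibitor combinations. Each agent spans half-log steps from near clinical Cmax, or 10 microM where Cmax is unknown.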

[1] = second compound 0.00316 µM, first compound 0.0316 µM
[2] = second compound 0.00316 µM, first compound 0.1 µM
[3] = second compound 0.00316 µM, first compound 0.316 µM
[4] = second compound 0.00316 µM, first compound 1 µM
[5] = second compound 0.01 µM, first compound 0.0316 µM
[6] = second compound 0.01 µM, first compound 0.1 µM
[7] = second compound 0.01 µM, first compound 0.316 µM
[8] = second compound 0.01 µM, first compound 1 µM
[9] = second compound 0.0316 µM, first compound 0.0316 µM
[10] = second compound 0.0316 µM, first compound 0.1 µM
[11] = second compound 0.0316 µM, first compound 0.316 µM
[12] = second compound 0.0316 µM, first compound 1 µM
[13] = second compound 0.0316 µM, first compound 3.16 µM
[14] = second compound 0.0316 µM, first compound 10 µM
[15] = second compound 0.1 µM, first compound 0.0316 µM
[16] = second compound 0.1 µM, first compound 0.1 µM
[17] = second compound 0.1 µM, first compound 0.316 µM
[18] = second compound 0.1 µM, first compound 1 µM
[19] = second compound 0.1 µM, first compound 3.16 µM
[20] = second compound 0.1 µM, first compound 10 µM
[21] = second compound 0.316 µM, first compound 0.0316 µM
[22] = second compound 0.316 µM, first compound 0.1 µM
[23] = second compound 0.316 µM, first compound 0.316 µM
[24] = second compound 0.316 µM, first compound 1 µM
[25] = second compound 0.316 µM, first compound 3.16 µM
[26] = second compound 0.316 µM, first compound 10 µM
[27] = second compound 1 µM, first compound 0.0316 µM
[28] = second compound 1 µM, first compound 0.1 µM
[29] = second compound 1 µM, first compound 0.316 µM
[30] = second compound 1 µM, first compound 1 µM
[31] = second compound 1 µM, first compound 3.16 µM
[32] = second compound 1 µM, first compound 10 µM
[33] = second compound 3.16 µM, first compound 0.0316 µM
[34] = second compound 3.16 µM, first compound 0.1 µM
[35] = second compound 10 µM, first compound 0.0316 µM
[36] = second compound 10 µM, first compound 0.1 µM
[37] = second compound 0.0316 µM, first compound 0.00316 µM
[38] = second compound 0.0316 µM, first compound 0.01 µM
[39] = second compound 0.1 µM, first compound 0.00316 µM
[40] = second compound 0.1 µM, first compound 0.01 µM
[41] = second compound 0.316 µM, first compound 0.00316 µM
[42] = second compound 0.316 µM, first compound 0.01 µM
[43] = second compound 1 µM, first compound 0.00316 µM
[44] = second compound 1 µM, first compound 0.01 µM
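Further: spheroids exposed to compounds for 7 days before viability read.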

CC(=O)OC12COC1CC(O)C1(C)C(=O)C(O)C3=C(C)C(OC(=O)C(O)C(NC(=O)OC(C)(C)C)c4ccccc4)CC(O)(C(OC(=O)c4ccccc4)C21)C3(C)C (stereo not drawn) + C=CC(=O)N1CCN(c2nc(OCC3CCCN3C)nc3c(F)c(-c4nc(N)cc(C)c4C(F)(F)F)c(Cl)cc23)C(C)C1
IC50 (second compound 0.00316 µM): < 31.6 nM | IC50 (second compound 0.01 µM): < 31.6 nM | IC50 (second compound 0.0316 µM): < 31.6 nM | IC50 (second compound 0.1 µM): < 31.6 nM | IC50 (second compound 0.316 µM): < 31.6 nM | IC50 (second compound 1 µM): < 31.6 nM | viability, T/C [1]: 8.38% | viability, T/C [2]: 7.03% | viability, T/C [3]: 7.44% | viability, T/C [4]: 6.91% | viability, T/C (second compound 0.00316 µM, first compound 3.16 µM): 7.11% | viability, T/C (second compound 0.00316 µM, first compound 10 µM): 7.02% | viability, T/C [5]: 8.84% | viability, T/C [6]: 6.99% | viability, T/C [7]: 7.34% | viability, T/C [8]: 7.25% | viability, T/C (second compound 0.01 µM, first compound 3.16 µM): 7.21% | viability, T/C (second compound 0.01 µM, first compound 10 µM): 6.02% | viability, T/C [9]: 8.72% | viability, T/C [10]: 7.79% | viability, T/C [11]: 7.18% | viability, T/C [12]: 7.01% | viability, T/C [13]: 6.46% | viability, T/C [14]: 5.97% | viability, T/C [15]: 8.28% | viability, T/C [16]: 7.95% | viability, T/C [17]: 8.02% | viability, T/C [18]: 7.09% | viability, T/C [19]: 8.08% | viability, T/C [20]: 6.87% | viability, T/C [21]: 8.75% | viability, T/C [22]: 8.38% | viability, T/C [23]: 10.2% | viability, T/C [24]: 8.18% | viability, T/C [25]: 8.14% | viability, T/C [26]: 6.78% | viability, T/C [27]: 12% | viability, T/C [28]: 9.42% | viability, T/C [29]: 9.31% | viability, T/C [30]: 8.34% | viability, T/C [31]: 11.8% | viability, T/C [32]: 9.17%

C[C@@H](NC(=O)c1ncnc(N)c1Cl)c1ncc(C(=O)Nc2cc(C(F)(F)F)c(Cl)cn2)s1 + C#Cc1c(F)ccc2cc(O)cc(-c3ncc4c(N5CC6CCC(C5)N6)nc(OCC56CCCN5CC(F)C6)nc4c3F)c12
IC50 (second compound 0.0316 µM): 9760 nM | IC50 (second compound 0.1 µM): 4170 nM | IC50 (second compound 0.316 µM): < 31.6 nM | IC50 (second compound 1 µM): < 31.6 nM | IC50 (second compound 3.16 µM): < 31.6 nM | IC50 (second compound 10 µM): < 31.6 nM | viability, T/C [9]: 104% | viability, T/C [10]: 98.5% | viability, T/C [11]: 90.6% | viability, T/C [12]: 91.7% | viability, T/C [13]: 76.1% | viability, T/C [14]: 48.8% | viability, T/C [15]: 77.2% | viability, T/C [16]: 69.5% | viability, T/C [17]: 62.1% | viability, T/C [18]: 61.3% | viability, T/C [19]: 60.8% | viability, T/C [20]: 26.7% | viability, T/C [21]: 36.3% | viability, T/C [22]: 49.8% | viability, T/C [23]: 38.5% | viability, T/C [24]: 36% | viability, T/C [25]: 23.7% | viability, T/C [26]: 14.4% | viability, T/C [27]: 20.9% | viability, T/C [28]: 23.9% | viability, T/C [29]: 22.7% | viability, T/C [30]: 22.3% | viability, T/C [31]: 18.8% | viability, T/C [32]: 11.1% | viability, T/C [33]: 15.4% | viability, T/C [34]: 17.6% | viability, T/C (second compound 3.16 µM, first compound 0.316 µM): 15.1% | viability, T/C (second compound 3.16 µM, first compound 1 µM): 15.4% | viability, T/C (second compound 3.16 µM, first compound 3.16 µM): 10.9% | viability, T/C (second compound 3.16 µM, first compound 10 µM): 8.51% | viability, T/C [35]: 9.89% | viability, T/C [36]: 10.8% | viability, T/C (second compound 10 µM, first compound 0.316 µM): 14% | viability, T/C (second compound 10 µM, first compound 1 µM): 12.8% | viability, T/C (second compound 10 µM, first compound 3.16 µM): 8% | viability, T/C (second compound 10 µM, first compound 10 µM): 8.5%

CC(C)n1nc(-c2ccc3oc(N)nc3c2)c2c(N)ncnc21 + C#Cc1c(F)ccc2cc(O)cc(-c3ncc4c(N5CC6CCC(C5)N6)nc(OCC56CCCN5CC(F)C6)nc4c3F)c12
IC50 (second compound 0.0316 µM): 13.7 nM | IC50 (second compound 0.1 µM): 1.83 nM | IC50 (second compound 0.316 µM): < 0.316 nM | IC50 (second compound 1 µM): < 0.316 nM | IC50 (second compound 3.16 µM): < 0.316 nM | IC50 (second compound 10 µM): < 0.316 nM | viability, T/C (second compound 0.0316 µM, first compound 0.000316 µM): 69.1% | viability, T/C (second compound 0.0316 µM, first compound 0.001 µM): 90.7% | viability, T/C [37]: 58.6% | viability, T/C [38]: 51.7% | viability, T/C [9]: 44.2% | viability, T/C [10]: 25.9% | viability, T/C (second compound 0.1 µM, first compound 0.000316 µM): 63.1% | viability, T/C (second compound 0.1 µM, first compound 0.001 µM): 53.6% | viability, T/C [39]: 44.3% | viability, T/C [40]: 37.8% | viability, T/C [15]: 19.9% | viability, T/C [16]: 7.3% | viability, T/C (second compound 0.316 µM, first compound 0.000316 µM): 26% | viability, T/C (second compound 0.316 µM, first compound 0.001 µM): 28.6% | viability, T/C [41]: 13.9% | viability, T/C [42]: 12.1% | viability, T/C [21]: 7.95% | viability, T/C [22]: 3.56% | viability, T/C (second compound 1 µM, first compound 0.000316 µM): 18.2% | viability, T/C (second compound 1 µM, first compound 0.001 µM): 14.2% | viability, T/C [43]: 13.9% | viability, T/C [44]: 6.42% | viability, T/C [27]: 5.57% | viability, T/C [28]: 2.65% | viability, T/C (second compound 3.16 µM, first compound 0.000316 µM): 13.7% | viability, T/C (second compound 3.16 µM, first compound 0.001 µM): 11.4% | viability, T/C (second compound 3.16 µM, first compound 0.00316 µM): 7.28% | viability, T/C (second compound 3.16 µM, first compound 0.01 µM): 4.66% | viability, T/C [33]: 4.51% | viability, T/C [34]: 2.8% | viability, T/C (second compound 10 µM, first compound 0.000316 µM): 9.87% | viability, T/C (second compound 10 µM, first compound 0.001 µM): 6.96% | viability, T/C (second compound 10 µM, first compound 0.00316 µM): 8.48% | viability, T/C (second compound 10 µM, first compound 0.01 µM): 4.45% | viability, T/C [35]: 3.9% | viability, T/C [36]: 1.75%

O=C(c1ccc(F)c(F)c1Nc1ccc(I)cc1F)N1CC(O)([C@@H]2CCCCN2)C1 + C=CC(=O)N1CCN(c2nc(OCC3CCCN3C)nc3c(F)c(-c4nc(N)cc(C)c4C(F)(F)F)c(Cl)cc23)C(C)C1
IC50 (second compound 0.00316 µM): 52.1 nM | IC50 (second compound 0.01 µM): 63.7 nM | IC50 (second compound 0.0316 µM): 66.9 nM | IC50 (second compound 0.1 µM): 74.5 nM | IC50 (second compound 0.316 µM): 73.4 nM | IC50 (second compound 1 µM): 86.1 nM | viability, T/C (second compound 0.00316 µM, first compound 0.00316 µM): 104% | viability, T/C (second compound 0.00316 µM, first compound 0.01 µM): 99.3% | viability, T/C [1]: 59.9% | viability, T/C [2]: 34% | viability, T/C [3]: 12% | viability, T/C [4]: 5.96% | viability, T/C (second compound 0.01 µM, first compound 0.00316 µM): 93.8% | viability, T/C (second compound 0.01 µM, first compound 0.01 µM): 110% | viability, T/C [5]: 79.2% | viability, T/C [6]: 30.4% | viability, T/C [7]: 11.9% | viability, T/C [8]: 5.44% | viability, T/C [37]: 99.3% | viability, T/C [38]: 87.8% | viability, T/C [9]: 78.1% | viability, T/C [10]: 35% | viability, T/C [11]: 12.1% | viability, T/C [12]: 5.54% | viability, T/C [39]: 75.7% | viability, T/C [40]: 98% | viability, T/C [15]: 70.5% | viability, T/C [16]: 42.8% | viability, T/C [17]: 11.4% | viability, T/C [18]: 5.74% | viability, T/C [41]: 78.8% | viability, T/C [42]: 92.2% | viability, T/C [21]: 93.8% | viability, T/C [22]: 35.9% | viability, T/C [23]: 13.3% | viability, T/C [24]: 7.18% | viability, T/C [43]: 98.1% | viability, T/C [44]: 96.8% | viability, T/C [27]: 82.6% | viability, T/C [28]: 45.6% | viability, T/C [29]: 13.2% | viability, T/C [30]: 6.57%
